Measurements published in patent US20260216196A1, “IMIDAZO[1,2-A]PYRIDINE AND IMIDAZO[1,2-A]PYRAZINE DERIVATIVES AS MLLT1 AND MLLT3 INHIBITORS” (DARK BLUE THERAPEUTICS LTD., priority 2022, published 2026).
Structures can show the parent of a compound that is named as a salt.

How the values were obtained:
[1] = target: MLLT1 (Homo sapiens, UniProt Q03111); test: biochemical; details: MLLT1 assay IC50 (nM), HTRF, 6His tagged MLLT1, biotinylated H3K9cro peptide; compound 20 μM to 20 nM, 11 data points in duplicate
MLLT1, sequence (Q03111 whole entry): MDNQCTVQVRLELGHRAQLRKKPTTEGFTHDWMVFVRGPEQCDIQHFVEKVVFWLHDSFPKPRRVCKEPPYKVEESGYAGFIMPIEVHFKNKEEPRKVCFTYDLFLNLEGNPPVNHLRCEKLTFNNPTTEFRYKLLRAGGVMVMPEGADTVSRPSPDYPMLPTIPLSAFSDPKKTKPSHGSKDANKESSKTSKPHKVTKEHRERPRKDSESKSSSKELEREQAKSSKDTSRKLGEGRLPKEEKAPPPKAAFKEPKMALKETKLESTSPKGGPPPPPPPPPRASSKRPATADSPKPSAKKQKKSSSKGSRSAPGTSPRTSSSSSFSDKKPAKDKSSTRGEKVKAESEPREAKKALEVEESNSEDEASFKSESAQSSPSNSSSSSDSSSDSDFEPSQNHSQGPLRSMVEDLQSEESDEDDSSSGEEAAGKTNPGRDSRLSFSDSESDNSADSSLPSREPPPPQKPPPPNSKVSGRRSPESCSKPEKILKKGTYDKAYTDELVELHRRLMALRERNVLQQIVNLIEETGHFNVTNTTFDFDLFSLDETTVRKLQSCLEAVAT

[2] = target: MLLT3 (Homo sapiens, UniProt P42568); test: HTRF IC50 determination assay, MLLT3 / H3K9cro peptide displacement; details: MLLT3 assay IC50 (nM), 6His tagged MLLT3, biotinylated H3K9cro peptide, compound 20 μM to 20 nM, 11 data points in duplicate
MLLT3, sequence (P42568 whole entry): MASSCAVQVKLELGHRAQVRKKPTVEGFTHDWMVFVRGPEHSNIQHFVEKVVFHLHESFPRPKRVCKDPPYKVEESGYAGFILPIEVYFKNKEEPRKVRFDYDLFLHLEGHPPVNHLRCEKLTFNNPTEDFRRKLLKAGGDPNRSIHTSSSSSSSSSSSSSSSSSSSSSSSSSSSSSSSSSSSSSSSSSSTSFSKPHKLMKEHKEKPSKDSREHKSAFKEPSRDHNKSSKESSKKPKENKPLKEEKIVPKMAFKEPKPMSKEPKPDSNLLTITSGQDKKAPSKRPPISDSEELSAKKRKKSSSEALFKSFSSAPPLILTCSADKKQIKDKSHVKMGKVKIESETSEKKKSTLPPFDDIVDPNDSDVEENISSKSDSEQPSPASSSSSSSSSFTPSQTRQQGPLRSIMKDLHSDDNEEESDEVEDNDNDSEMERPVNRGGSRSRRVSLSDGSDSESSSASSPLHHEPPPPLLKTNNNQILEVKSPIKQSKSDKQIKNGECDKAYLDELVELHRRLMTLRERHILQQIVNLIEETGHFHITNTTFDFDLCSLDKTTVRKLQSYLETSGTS

| Structure (SMILES) | IC50 [1] [nM] | IC50 [2] [nM] |
| --- | --- | --- |
| Cc1nn(C)c2cc(C(=O)Nc3cn4cc([C@H]5CCCN5C)nc4cn3)ccc12 [Example 70, 1,3-dimethyl-N-{2-[(2R)-1-methylpyrrolidin-2-yl]imidazo[1,2-a]pyrazin-6-yl}-1H-indazole-6-carboxamide] | 150 to 1500 | 150 to 1500 |
| Cc1nn(C)c2cc(C(=O)Nc3cn4cc([C@H]5CCCN5C)nc4c(C4CC4)n3)c(F)cc12 [Example 100, N-[8-cyclopropyl-2-[(2R)-1-methylpyrrolidin-2-yl]imidazo[1,2-a]pyrazin-6-yl]-5-fluoro-1,3-dimethyl-indazole-6-carboxamide] | 150 to 1500 | 150 to 1500 |
| Cc1nn(C)c2cc(C(=O)Nc3cn4cc(C5CN(C)CCN5C)nc4cn3)ccc12 (single isomer, unassigned) [Example 67] | 150 to 1500 | 150 to 1500 |
| CN1CCC[C@@H]1c1cn2cc(NC(=O)c3ccc4c(cnn4C)c3)nc(C3CC3)c2n1 [Example 99, N-[8-cyclopropyl-2-[(2R)-1-methylpyrrolidin-2-yl]imidazo[1,2-a]pyrazin-6-yl]-1-methyl-indazole-5-carboxamide] | 150 to 1500 | 1500 to 20000 |
| COc1ccc2c(C(=O)Nc3ccc4nc(C5CCCN5C)cn4c3)c[nH]c2c1 (racemic) [Example 39, rac-6-methoxy-N-[2-(1-methylpyrrolidin-2-yl)imidazo[1,2-a]pyridin-6-yl]-1H-indole-3-carboxamide] | 1500 to 20000 | > 20000 |
| CN1CCCC1c1cn2cc(NC(=O)c3ccc4cncnc4c3)ccc2n1 (racemic) [Example 47, rac-N-[2-(1-methylpyrrolidin-2-yl)imidazo[1,2-a]pyridin-6-yl]quinazoline-7-carboxamide] | 150 to 1500 | 1500 to 20000 |
| CN1CCCC1(C)c1cn2cc(NC(=O)c3ccc4c(cnn4C)c3)ccc2n1 (racemic) [Example 4, rac-N-[2-(1,2-dimethylpyrrolidin-2-yl)imidazo[1,2-a]pyridin-6-yl]-1-methylindazole-5-carboxamide] | 150 to 1500 | 1500 to 20000 |
| CCN1CCCC1c1cn2cc(NC(=O)c3ccc4c(C)nn(C)c4c3)ncc2n1 (single isomer, unassigned) [Example 88, N-{2-[(rel-2S)-1-ethylpyrrolidin-2-yl]imidazo[1,2-a]pyrazin-6-yl}-1,3-dimethylindazole-6-carboxamide] | 1500 to 20000 | 1500 to 20000 |
| Cc1ncc(-c2ccc(C(=O)Nc3ccc4nc(C5CCCN5C)cn4c3)c(F)c2)s1 (single isomer, unassigned) [Example 25] | 150 to 1500 | 150 to 1500 |
| CN1CCCC1c1cn2cc(NC(=O)c3ccc(-c4cncs4)cc3F)ccc2n1 (single isomer, unassigned) [Example 7] | 1500 to 20000 | 1500 to 20000 |
| Cc1noc2nc(C(=O)Nc3ccc4nc(C5CCCN5C)cn4c3)ccc12 (racemic) [Example 50, rac-3-methyl-N-[2-(1-methylpyrrolidin-2-yl)imidazo[1,2-a]pyridin-6-yl]-[1,2]oxazolo[5,4-b]pyridine-6-carboxamide] | 1500 to 20000 | 1500 to 20000 |
| CN1CCCC1c1cn2cc(NC(=O)c3cc(-c4cnccn4)ccc3F)ccc2n1 (single isomer, unassigned) [Example 24] | 150 to 1500 | 1500 to 20000 |
| CN1CCCC1c1cn2cc(NC(=O)c3ccc(-c4cnn(C)c4)cc3F)ccc2n1 (single isomer, unassigned) [Example 21] | 150 to 1500 | 150 to 1500 |
| CN1CCCC1c1cn2cc(NC(=O)c3ccc4cc(F)ccc4c3)ccc2n1 (single isomer, unassigned) [Example 6] | 1500 to 20000 | 1500 to 20000 |
| CN1CCCC1c1cn2cc(NC(=O)c3ccc(-n4cccn4)nc3)ccc2n1 (racemic) [Example 13, rac-N-[2-(1-methylpyrrolidin-2-yl)imidazo[1,2-a]pyridin-6-yl]-6-(1H-pyrazol-1-yl)pyridine-3-carboxamide] | 1500 to 20000 | 1500 to 20000 |
| CN1CCCC1c1cn2cc(NC(=O)c3ccc(-n4cncn4)cc3)ccc2n1 (racemic) [Example 12, rac-N-[2-(1-methylpyrrolidin-2-yl)imidazo[1,2-a]pyridin-6-yl]-4-(1H-1,2,4-triazol-1-yl)benzamide] | 150 to 1500 | 1500 to 20000 |
| CCc1nnc2cc(C(=O)Nc3ccc4nc(C5CCCN5C)cn4c3)ccn12 (racemic) [Example 35, rac-3-ethyl-N-[2-(1-methylpyrrolidin-2-yl)imidazo[1,2-a]pyridin-6-yl]-[1,2,4]triazolo[4,3-a]pyridine-7-carboxamide formate] | 1500 to 20000 | 1500 to 20000 |
| CN1CCCC1c1cn2cc(NC(=O)c3cc4ccncc4cc3F)ccc2n1 (single isomer, unassigned) [Example 26] | 150 to 1500 | 150 to 1500 |

| Structure (SMILES) | IC50 [1] [nM] | IC50 [2] [nM] |
| --- | --- | --- |
| CN1CCCC1c1cn2cc(NC(=O)c3cc4ccncc4o3)ccc2n1 (racemic) [Example 54, rac-N-[2-(1-methylpyrrolidin-2-yl)imidazo[1,2-a]pyridin-6-yl]furo[2,3-c]pyridine-2-carboxamide] | 150 to 1500 | 1500 to 20000 |
| Cc1nn(C)c2cc(C(=O)Nc3cn4cc(C5CCCN5C)nc4cc3F)ccc12 (racemic) [Example 57, rac-N-[7-fluoro-2-(1-methylpyrrolidin-2-yl)imidazo[1,2-a]pyridin-6-yl]-1,3-dimethyl-1H-indazole-6-carboxamide] | 150 to 1500 | 1500 to 20000 |
| CN1CCCC1c1cn2cc(NC(=O)c3ccn4cnnc4c3)ccc2n1 (racemic) [Example 33, rac-N-[2-(1-methylpyrrolidin-2-yl)imidazo[1,2-a]pyridin-6-yl]-[1,2,4]triazolo[4,3-alpyridine-7-carboxamide] | 150 to 1500 | 1500 to 20000 |
| CC1CCC(c2cn3cc(NC(=O)c4ccc5c(cnn5C)c4)ccc3n2)N1C (racemic) [Example 63, rac-N-[2-(1,5-dimethylpyrrolidin-2-yl)imidazo[1,2-a]pyridin-6-yl]-1-methyl-1H-indazole-5-carboxamide] | 1500 to 20000 | 1500 to 20000 |
| Cc1nn(C)c2cc(C(=O)Nc3cn4cc(C5CC(C(C)(C)C)CN5C)nc4cn3)ccc12 (racemic) [Example 84, rac-N-[2-(4-tert-butyl-1-methylpyrrolidin-2-yl)imidazo[1,2-a]pyrazin-6-yl]-1,3-dimethylindazole-6-carboxamide] | < 150 | 150 to 1500 |
| Cc1nn(C)c2nc(C(=O)Nc3ccc4nc(C5CCCN5C)cn4c3)ccc12 (racemic) [Example 31, rac-1,3-dimethyl-N-[2-(1-methylpyrrolidin-2-yl)imidazo[1,2-a]pyridin-6-yl]-1H-pyrazolo[3,4-b]pyridine-6-carboxamide] | 1500 to 20000 | 1500 to 20000 |
| CN1CCOCC1c1cn2cc(NC(=O)c3ccc4c(cnn4C)c3)ccc2n1 (racemic) [Example 2, rac-1-methyl-N-[2-(4-methylmorpholin-3-yl)imidazo[1,2-a]pyridin-6-yl]indazole-5-carboxamide] | 1500 to 20000 | 1500 to 20000 |
| CN1CC2(CC2)C[C@@H]1c1cn2cc(NC(=O)c3ccc4c(cnn4C)c3)ncc2n1 [Example 102, 1-methyl-N-[2-[(6R)-5-methyl-5-azaspiro[2.4]heptan-6-yl]imidazo[1,2-a]pyrazin-6-yl]indazole-5-carboxamide] | < 150 | 150 to 1500 |
| CN1CCCC1c1cn2cc(NC(=O)c3ccc4ncccc4n3)ccc2n1 (racemic) [Example 10, rac-N-[2-(1-methylpyrrolidin-2-yl)imidazo[1,2-a]pyridin-6-yl]-1,5-naphthyridine-2-carboxamide] | 1500 to 20000 | > 20000 |
| CC1CC(c2cn3cc(NC(=O)c4ccc5c(cnn5C)c4)ccc3n2)N(C)C1 (racemic) [Example 64, rac-N-[2-(1,4-dimethylpyrrolidin-2-yl)imidazo[1,2-a]pyridin-6-yl]-1-methyl-1H-indazole-5-carboxamide] | 150 to 1500 | 150 to 1500 |
| CCN1CCCC1c1cn2cc(NC(=O)c3ccc4c(C)nn(C)c4c3)ncc2n1 (single isomer, unassigned) [Example 87, N-{2-[(rel-2R)-1-ethylpyrrolidin-2-yl]imidazo[1,2-a]pyrazin-6-yl}-1,3-dimethylindazole-6-carboxamide] | 150 to 1500 | 150 to 1500 |
| CN1C[C@@H](F)C[C@@H]1c1cn2cc(NC(=O)c3ccc4c(cnn4C)c3)ncc2n1 [Example 83, N-{2-[(2R,4S)-4-fluoro-1-methylpyrrolidin-2-yl]imidazo[1,2-a]pyrazin-6-yl}-1-methylindazole-5-carboxamide] | 150 to 1500 | 150 to 1500 |
| Cc1nn(C)c2cc(C(=O)Nc3ccc4nc(C5CCCN5C)cn4c3)c(F)cc12 (racemic) [Example 30, rac-5-fluoro-1,3-dimethyl-N-[2-(1-methylpyrrolidin-2-yl)imidazo[1,2-a]pyridin-6-yllindazole-6-carboxamide] | 150 to 1500 | 150 to 1500 |
| CN1CCCC1c1cn2cc(NC(=O)c3ccc(-c4cncs4)cc3F)ccc2n1 (single isomer, unassigned) [Example 8] | 150 to 1500 | 150 to 1500 |
| COC1CC(c2cn3cc(NC(=O)c4ccc5c(cnn5C)c4)ccc3n2)N(C)C1 (racemic) [Example 65, rac-N-[2-(4-methoxy-1-methylpyrrolidin-2-yl)imidazo[1,2-a]pyridin-6-yl]-1-methyl-1H-indazole-5-carboxamide] | 150 to 1500 | 1500 to 20000 |
| CN1CCC[C@@H]1c1cn2cc(NC(=O)c3ccc4c(N5CCCCC5)nn(C)c4c3)ncc2n1 [Example 98, 1-methyl-N-{2-[(2R)-1-methylpyrrolidin-2-yl]imidazo[1,2-a]pyrazin-6-yl}-3-(piperidin-1-yl)indazole-6-carboxamide] | 150 to 1500 | 150 to 1500 |
| CN1CCCC1c1cn2cc(NC(=O)c3ccc(-c4cnccn4)cc3F)ccc2n1 (single isomer, unassigned) [Example 19] | 150 to 1500 | 1500 to 20000 |
